{"source": "paper PMC7343696", "about": "(EJNMMI Research, 2020)", "key": {"[1]": {"test_system": "tryptophan or 5-hydroxytryptophan induced symptoms", "conditions": "mice, assay type I, cited from earlier work"}, "[2]": {"target": "T1, human platelets (uptake via SERT) (Homo sapiens, UniProt P31645)", "T1 construct": "endogenous in cells; host or cells: human platelets in platelet-rich plasma from patients with polycythemia vera or secondary polycythemia", "T1 sequence (P31645 whole entry)": "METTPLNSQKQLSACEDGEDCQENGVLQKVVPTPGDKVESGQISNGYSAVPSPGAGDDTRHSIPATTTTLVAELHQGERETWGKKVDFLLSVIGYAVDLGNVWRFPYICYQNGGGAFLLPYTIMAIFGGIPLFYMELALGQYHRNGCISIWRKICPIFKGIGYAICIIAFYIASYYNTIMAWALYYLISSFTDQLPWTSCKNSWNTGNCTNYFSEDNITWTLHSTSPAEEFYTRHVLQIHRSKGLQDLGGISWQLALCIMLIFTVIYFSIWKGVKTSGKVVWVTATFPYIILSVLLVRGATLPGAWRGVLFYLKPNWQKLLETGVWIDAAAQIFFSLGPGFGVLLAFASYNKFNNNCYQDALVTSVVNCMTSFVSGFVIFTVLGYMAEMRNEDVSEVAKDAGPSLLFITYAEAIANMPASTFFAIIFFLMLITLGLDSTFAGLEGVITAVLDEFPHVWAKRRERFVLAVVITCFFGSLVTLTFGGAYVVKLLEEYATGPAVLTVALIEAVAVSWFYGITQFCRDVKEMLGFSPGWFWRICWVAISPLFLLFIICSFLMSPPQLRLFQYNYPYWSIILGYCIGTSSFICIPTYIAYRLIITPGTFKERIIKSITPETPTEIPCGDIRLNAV", "assay": "[125I]MIBG uptake inhibition in isolated human platelets", "format": "cell-based"}, "[3]": {"test_system": "SK-N-SH neuroblastoma xenografts", "assay": "[125I]MIBG tumor uptake in mice bearing SK-N-SH neuroblastoma xenografts", "format": "in vivo, BALB/c nu/nu mice", "conditions": "for Effect on [125I]MIBG accumulation in neuroblastoma xenografts (in words): inhibitor IP 30 min before [125I]MIBG, tissues 1 h after, doses as in Fig. 6", "method": "(§1) Female athymic BALB/c nu/nu mice were bred in the animal facility of the Netherlands Cancer Institute. Experiments were performed in accordance with the national regulations for animal experimentations and approved by the local animal welfare committee. Subcutaneous (s.c.) neuroblastoma tumors consisted of either first passages of intrasplenic-induced SK-N-SH xenografts or later passages from s.c. propagation of the xenograft. […] The tumor volume doubling time was on average 5 days. The toxicity of each monoamine transporter inhibitor was assessed in 2 to 5 non-tumor-bearing nude mice by 1 h careful observation following intraperitoneal (IP) injection of the monoamine transporter inhibitor. Applied inhibitor doses were based on earlier studies (summarized in Electronic Supplementary Material: Table I) and varied from 2 to 50 mg/kg. Provided that no toxicity was observed, plasma of these animals was subsequently analyzed in the ex vivo bioassay described below. […]. First, mice were treated IP with either a monoamine transporter inhibitor or sodium chloride (control). Thirty minutes later, they received an injection in the tail vein with 1 μg MIBG spiked with 4.0–8.0 kBq [^125I]MIBG. One hour after administration of the radiopharmaceutical, the animals were bled from the carotid artery under ether anesthesia and dissected. Tumors and tissues of interest were blotted to remove adhering blood, weighted, and gamma counted. The [^125I]MIBG tissue levels were expressed as the percentage of the injected radioactivity dose per gram tissue. Mice bearing PC12 pheochromocytoma xenografts induced by direct s.c. injections of PC12 cells were used in similar uptake and inhibition experiments."}, "NET": {"target": "T2, NET (Homo sapiens, UniProt P23975)", "T2 construct": "host or cells: HEK293 (ATCC CRL-3216), transient transfection", "T2 sequence (P23975 whole entry)": "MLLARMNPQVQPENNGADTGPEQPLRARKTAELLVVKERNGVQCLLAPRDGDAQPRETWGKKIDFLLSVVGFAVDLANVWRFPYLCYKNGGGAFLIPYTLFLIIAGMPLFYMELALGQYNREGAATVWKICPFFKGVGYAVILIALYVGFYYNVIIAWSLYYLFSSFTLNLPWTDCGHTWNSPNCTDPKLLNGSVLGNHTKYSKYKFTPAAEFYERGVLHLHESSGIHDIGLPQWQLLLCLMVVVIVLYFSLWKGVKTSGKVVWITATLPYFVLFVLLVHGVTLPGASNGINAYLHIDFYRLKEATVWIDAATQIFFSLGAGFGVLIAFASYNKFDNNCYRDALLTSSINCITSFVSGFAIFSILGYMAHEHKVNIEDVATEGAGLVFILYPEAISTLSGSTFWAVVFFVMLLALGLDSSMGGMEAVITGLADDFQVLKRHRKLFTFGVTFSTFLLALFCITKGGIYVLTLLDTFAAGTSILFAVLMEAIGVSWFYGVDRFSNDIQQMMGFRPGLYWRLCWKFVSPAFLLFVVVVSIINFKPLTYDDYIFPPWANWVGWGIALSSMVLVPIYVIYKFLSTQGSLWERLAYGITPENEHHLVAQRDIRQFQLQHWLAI", "assay": "[125I]MIBG uptake and its inhibition in NET-transfected HEK293 cells (HEK-NET)", "format": "cell-based"}, "[4]": {"test_system": "PC12 pheochromocytoma xenografts", "assay": "[125I]MIBG tumor uptake in mice bearing PC12 pheochromocytoma xenografts", "format": "in vivo", "conditions": "for Effect on tumor MIBG uptake in PC12 pheochromocytoma xenografts (in words): data not shown", "method": "as §1"}, "[5]": {"target": "T1, human platelets (uptake via SERT)", "assay": "[3H]serotonin uptake inhibition in isolated human platelets", "format": "cell-based", "conditions": "15 min"}, "SERT [6]": {"target": "T3, SERT (Homo sapiens, UniProt P31645)", "T3 construct": "host or cells: HEK293 (ATCC CRL-3216), transient transfection", "T3 sequence (P31645 whole entry)": "as the sequence (P31645 whole entry) above", "format": "cell-based"}, "[7]": {"target": "T4, human SK-N-SH neuroblastoma cells (uptake via NET) (Homo sapiens, UniProt P23975)", "T4 construct": "host or cells: SK-N-SH human neuroblastoma cells", "T4 sequence (P23975 whole entry)": "as the sequence (P23975 whole entry) above", "assay": "[125I]MIBG uptake inhibition in cultured SK-N-SH neuroblastoma cells", "format": "cell-based"}, "[8]": {"conditions": "cited from earlier work"}, "platelet function": {"test_system": "platelet function", "conditions": "plasma concentrations that will inhibit SERT; cited from earlier work"}, "[9]": {"parameters": "method as in ref (3) (a number printed in a supplementary file, which may have a reference list of its own: not looked up in the article's list)", "conditions": "mice, 24 mg/kg i.v., fifteen min after administration; ref (3); cited from earlier work"}, "[10]": {"test_system": "amphetamine-stimulated locomotor activity", "parameters": "method as in ref (8) (a number printed in a supplementary file, which may have a reference list of its own: not looked up in the article's list)", "conditions": "mice, i.p., assay type IV; ref (8); cited from earlier work"}, "SERT [11]": {"test_system": "SERT", "conditions": "cited from earlier work"}, "[12]": {"conditions": "[125I]MIBG as substrate, HEK-NET"}, "[13]": {"conditions": "[125I]MIBG as substrate, HEK-SERT"}}, "note": "Entries after “also recorded” stand apart in the source; their conditions may differ. Counter-ions that a name gives are not always drawn. Like-named read-outs stand apart in the source and are kept apart here. Marks after values point to notes of the source that are not given here."}
{"smiles": "COCCCC/C(=N\\OCCN)c1ccc(C(F)(F)F)cc1", "note": "[Fluvoxamine, fluvoxamine-maleate]", "values": [{"measurement": "50 % effective dose", "setting": "[1]; oral, ref (2)", "result": "13^c mg/kg"}, {"measurement": "Inhibition of [125I]MIBG uptake in human platelets (in words)", "setting": "[2]; co-incubation, 4 h", "result": "effective, inhibitor concentration-dependent inhibition"}, {"measurement": "Effect on [125I]MIBG accumulation in neuroblastoma xenografts (in words)", "setting": "[3]", "result": "no effect; also recorded: not significantly affected"}, {"measurement": "Inhibition of [125I]MIBG uptake in HEK-NET cells (in words)", "setting": "NET; 1 h, substrate 10^−6 M", "result": "no significant inhibitory effect at low concentrations"}, {"measurement": "Reduction of pheochromocytoma-associated radioactivity", "setting": "[4]; PC12 xenografts, p < 0.002", "result": 64, "unit": "%"}, {"measurement": "Inhibition of [3H]serotonin uptake in human platelets (in words)", "setting": "[5]; co-incubation", "result": "effective, inhibitor concentration-dependent inhibition"}, {"measurement": "Inhibition of [125I]MIBG uptake in HEK-SERT cells (in words)", "setting": "SERT [6]; 1 h, substrate 10^−6 M", "result": "potently inhibited"}]}
{"smiles": "CC(N)C(=O)OC(C)(C)Cc1ccc(Cl)cc1", "note": "(centres unmarked) [Alaproclate, alaproclate-HCl]", "values": [{"measurement": "IC50", "setting": "[2]; 10^−8 M substrate, 37 °C, 4 h", "result": 38, "unit": "nM"}, {"measurement": "IC50", "setting": "[7]", "result": 43400, "unit": "nM"}, {"measurement": "Selectivity factor, IC50 ratio", "setting": "[7]", "result": 1158}, {"measurement": "IC50", "setting": "[5]; 10^−8 M substrate, 37 °C", "result": 516, "unit": "nM"}]}
{"smiles": "CN(C)CCCN1c2ccccc2CCc2ccccc21", "note": "[Imipramine, imipramine-HCl]", "values": [{"measurement": "Inhibition of [125I]MIBG uptake in human platelets (in words)", "setting": "[2]", "result": "able to inhibit"}, {"measurement": "Effect on MIBG uptake in neuroblastoma cells (in words)", "setting": "[7]", "result": "profound inhibitory effect"}]}
{"smiles": "CN[C@H]1CC[C@@H](c2ccc(Cl)c(Cl)c2)c2ccccc21", "note": "[Sertraline, sertraline-HCl]", "values": [{"measurement": "50 % effective dose", "setting": "[1]; i.p., ref (1)", "result": "1.5^c mg/kg"}, {"measurement": "50 % effective dose", "setting": "[1]; oral, ref (2)", "result": "1.0^c mg/kg"}, {"measurement": "Fraction absorbed after oral ingestion", "setting": "[8]", "result": 44, "unit": "%"}, {"measurement": "Effect on [125I]MIBG accumulation in neuroblastoma xenografts (in words)", "setting": "[3]", "result": "not significantly affected"}, {"measurement": "Effect on tumor MIBG uptake in PC12 pheochromocytoma xenografts (in words)", "setting": "[4]", "result": "no significant difference"}]}
{"smiles": "Fc1ccc([C@@H]2CCNC[C@H]2COc2ccc3c(c2)OCO3)cc1", "note": "[Paroxetine, paroxetine-HCl]", "values": [{"measurement": "50 % effective dose", "setting": "[1]; i.p., ref (1)", "result": "0.2^c mg/kg"}, {"measurement": "Bioavailability", "setting": "[8]; extensive first-pass metabolism", "result": "approximately 50%"}, {"measurement": "Effect on [125I]MIBG accumulation in neuroblastoma xenografts (in words)", "setting": "[3]", "result": "no effect; also recorded: not significantly affected"}]}
{"smiles": "CN(C)CCCC1(c2ccc(F)cc2)OCc2cc(C#N)ccc21", "note": "(centres unmarked) [Citalopram, citalopram-HBr]", "values": [{"measurement": "50 % effective dose", "setting": "[1]; i.p., ref (1)", "result": "0.9^c mg/kg"}, {"measurement": "50 % effective dose", "setting": "[1]; oral, ref (2)", "result": "1.2^c mg/kg"}, {"measurement": "Effect on platelet function (in words)", "setting": "platelet function", "result": "no effect on platelet function"}, {"measurement": "Plasma half-life", "setting": "[8]; after oral ingestion", "result": "33 to 54", "unit": "h"}, {"measurement": "Time to maximum plasma drug levels", "setting": "[8]; after oral ingestion", "result": "≤ 4", "unit": "h"}, {"measurement": "Absorption after oral ingestion (in words)", "setting": "[8]", "result": "completely absorbed"}, {"measurement": "Effect on [125I]MIBG accumulation in neuroblastoma xenografts (in words)", "setting": "[3]", "result": "not significantly affected"}, {"measurement": "Plasma level", "setting": "[9]", "result": 6, "unit": "µM"}, {"measurement": "Effect on tumor MIBG uptake in PC12 pheochromocytoma xenografts (in words)", "setting": "[4]", "result": "no significant difference"}]}
{"smiles": "N=C(N)NCc1cccc(I)c1", "note": "[MIBG, meta-iodobenzylguanidine]", "values": [{"measurement": "Km", "setting": "NET; [125I]MIBG as substrate, HEK-NET, 1 h incubation", "result": 0.49, "unit": "µM"}, {"measurement": "Km", "setting": "SERT [6]; [125I]MIBG as substrate, HEK-SERT, 1 h incubation", "result": 9.7, "unit": "µM"}]}
{"smiles": "CNCCC(Oc1ccc(C(F)(F)F)cc1)c1ccccc1", "note": "(centres unmarked) [Fluoxetine, fluoxetine-HCl]", "values": [{"measurement": "Elimination half-life", "setting": "[8]", "result": "24 to 96", "unit": "h"}]}
{"smiles": "CNCCCN1c2ccccc2CCc2ccccc21", "note": "[Desipramine, desipramine-HCl]", "values": [{"measurement": "50 % effective dose", "setting": "[1]; i.p., ref (1)", "result": ">39^c mg/kg"}, {"measurement": "50 % effective dose", "setting": "[1]; oral, ref (2, 4, 7)", "result": "20 – 320^c mg/kg"}, {"measurement": "Decrease of [125I]MIBG accumulation in neuroblastoma xenografts", "setting": "[3]; 20 mg/kg IP 30 min before [125I]MIBG", "result": 60, "unit": "%"}, {"measurement": "Effect on [125I]MIBG accumulation in neuroblastoma xenografts (in words)", "setting": "[3]", "result": "profoundly decreased"}, {"measurement": "Effect on tumor MIBG uptake in PC12 pheochromocytoma xenografts (in words)", "setting": "[4]", "result": "same reduction of MIBG uptake as seen in SK-N-SH neuroblastoma xenografts"}, {"measurement": "Reported effective dose (cell not marked as 50 % effective dose)", "setting": "[10]", "result": "5 to 36", "unit": "mg/kg"}]}
{"smiles": "CNCCCC1(c2ccc(F)cc2)OCc2cc(C#N)ccc21", "note": "(centres unmarked) [desmethylcitalopram]", "values": [{"measurement": "Potency and selectivity in inhibiting SERT in vitro compared with citalopram (in words)", "setting": "SERT [11]", "result": "only slightly less potent and selective than citalopram"}]}
{"smiles": "N=C(N)NCc1cccc([131I])c1", "note": "[MIBG, meta-iodobenzylguanidine]", "values": [{"measurement": "Total uptake (percentage of added radioactivity)", "setting": "[2]; control platelet samples without SSRIs, MIBG, n = 17", "result": "23.6 ± 3.6", "unit": "%"}, {"measurement": "Nonspecific uptake (percentage of controls)", "setting": "[2]; platelets, MIBG", "result": "12.3 ± 2.5", "unit": "%"}, {"measurement": "Nonspecific uptake, share of total uptake", "setting": "NET; NET-transfected cells, substrate concentration 10^−5 M", "result": 33, "unit": "%"}, {"measurement": "Catalytic efficiency (ratio Vmax/Km)", "setting": "NET; [12]", "result": 0.045}, {"measurement": "Vmax", "setting": "NET; [12]", "result": 0.022, "unit": "μmol/mg protein/min"}, {"measurement": "Nonspecific uptake, share of total uptake", "setting": "SERT [6]; SERT-transfected cells, substrate concentration 10^−5 M", "result": 22, "unit": "%"}, {"measurement": "Catalytic efficiency (ratio Vmax/Km)", "setting": "SERT [6]; [13]", "result": 0.0077}, {"measurement": "Vmax", "setting": "SERT [6]; [13]", "result": 0.074, "unit": "μmol/mg protein/min"}]}
{"smiles": "NCCC(Oc1ccc(C(F)(F)F)cc1)c1ccccc1", "note": "(centres unmarked) [Norfluoxetine, norfluoxetine-HCl]", "values": [{"measurement": "IC50", "setting": "[7]; 10^−8 M substrate, 37 °C, 4 h, read-out: IC50 of uptake inhibition, SK-N-SH, [125I]MIBG", "result": 2760, "unit": "nM"}, {"measurement": "Elimination half-life", "setting": "[8]", "result": "170 to 360", "unit": "h"}]}
